Test results published in PMC6946680, “Modulation of brain cation-Cl^− cotransport via the SPAK kinase inhibitor ZT-1a” (Nature Communications, 2020).
Where “and” joins values, the source holds several entries; their conditions need not be identical. Equal entries are not always repeated.

Experiments:
SPAK pSer373 = test: Immunoblot of SPAK/OSR1 p-Ser373/Ser325 in HEK-293 cells; type: cell-based, human
Method: (§1) Band intensities were quantitated with ImageJ software. ***p < 0.001; **p < 0.01; *p < 0.05; ns, nonsignificant [by one-way ANOVA with post hoc testing (n = 6, error bars represent the mean ± SEM)].
(§2) Thirty-six hours post transfection, cells were stimulated with either control isotonic or hypotonic medium for a period of 30 min. […] Protein concentrations were determined using the Bradford method. Cells were treated with the indicated concentrations of the SPAK/OSR1 inhibitors.

NKCC1 pThr203/207/212 = test: Immunoblot of NKCC1 p-Thr203/Thr207/Thr212 in HEK-293 cells; type: cell-based, human
Method: as §1, §2

KCC3 pThr991 = test: Immunoblot of KCC site 1 phosphorylation (KCC3 Thr991) in HEK-293 cells transfected with FLAG-KCC3; type: cell-based, human
KCC3 pThr1048 = test: Immunoblot of KCC site 2 phosphorylation (KCC3 Thr1048) in HEK-293 cells transfected with FLAG-KCC3; type: cell-based, human
GST–[T233E]SPAK kinase = molecular target: T1, GST–[T233E]SPAK kinase (Homo sapiens, UniProt Q9UEW8, T231E); test: SPAK kinase assay with CATCHtide and IC50 determination; type: biochemical
T1 construct: made in house; host or cells: E. coli
Excerpt: II. Experimental procedures
1. Reagents and General methods
Tissue culture reagents were from Life Technologies. P81 phosphocellulose paper was from Whatman […]
and [γ-32P]-ATP was from Perkin Elmer. […] Protein G […]
sepharose was from Amersham. DNA constructs used for transfection were purified from Escherichia coli DH5α using Qiagen or Invitrogen plasmid Maxi kits according to the manufacturer's protocol. All DNA constructs were verified by DNA sequencing.
2. Plasmids, protein expression and purification
DNA clones were from the Division of Signal Transduction Therapy (University of Dundee). The SPAK proteins were expressed in E. Coli and purified as described previously 1.
3. SPAK kinase assays and IC50 determination
SPAK kinase assays employed CATCHtide (cation chloride co-transporter peptide substrate). Peptide kinase assays, performed in triplicate, were set up in a total volume of 50 μl containing 0.5 μg GST– […]
cpm/pmol) and the indicated concentrations of inhibitor dissolved in DMSO. After incubation for 30 min at 30°C, reactions were terminated by spotting 40 μl of the reaction mix onto P81 phosphocellulose paper and immersion in 50 mM phosphoric acid. The papers were washed extensively and incorporation of [γ-32P]ATP into CATCHtide was quantified by Cerenkov counting.
IC50 values were calculated with GraphPad Prism using non-linear regression analysis.
4. Fluorescence polarization […]
concentrations between 0.00001 to 1 mM. Data points are the means of three determinations, with error […]
A Supplemental Fig. 7 Effects of increasing concentrations of ZT-1a on SPAK activity in the absence […]
the absence or presence of five-fold molar excess of wild-type MO25α. b Kinetic data determined for B ZT-1a in the absence or presence of five-fold molar excess of wild-type MO25α. Data are means of […]
presence of wild-type MO25α.

[1] = Hypotonic low Cl, compound concentration 1 (unit not given)
[2] = Hypotonic low Cl, compound concentration 3 (unit not given)
[3] = Hypotonic low Cl, compound concentration 10 (unit not given)
[4] = Isotonic control, compound concentration 1 (unit not given)
[5] = Isotonic control, compound concentration 3 (unit not given)
[6] = Isotonic control, compound concentration 10 (unit not given)

Cc1cc(C(C#N)c2ccc(Cl)cc2)c(Cl)cc1NC(=O)c1ccccc1S (stereo not shown) [ZT-1c]
pSer373 / SPAK (SPAK pSer373; [1]): 0.203 and 0.196 and 0.2213 and 0.215 | pSer373 / SPAK (SPAK pSer373; [2]): 0.112 and 0.125 and 0.103 and 0.117 | pSer373 / SPAK (SPAK pSer373; [3]): 0.032 and 0.051 and 0.046 and 0.039 | pSer373 / SPAK (SPAK pSer373; [4]): 0.122 and 0.112 and 0.129 and 0.116 | pSer373 / SPAK (SPAK pSer373; [5]): 0.075 and 0.062 and 0.048 and 0.057 | pSer373 / SPAK (SPAK pSer373; [6]): 0.036 and 0.024 and 0.031 and 0.029 | pThrNKCC1 / NKCC1 (NKCC1 pThr203/207/212; [1]): 1.123 and 1.265 and 1.316 and 1.19 | pThrNKCC1 / NKCC1 (NKCC1 pThr203/207/212; [2]): 0.587 and 0.521 and 0.402 and 0.467 | pThrNKCC1 / NKCC1 (NKCC1 pThr203/207/212; [3]): 0.215 and 0.209 and 0.187 and 0.193 | pThrNKCC1 / NKCC1 (NKCC1 pThr203/207/212; [4]): 0.43 and 0.561 and 0.501 and 0.592 | pThrNKCC1 / NKCC1 (NKCC1 pThr203/207/212; [6]): 0.05 and 0.036 and 0.066 and 0.049 | Site-1 phospho / KCC (KCC3 pThr991; [1]): 1.35 and 1.471 and 1.65 and 1.51 | Site-1 phospho / KCC (KCC3 pThr991; [2]): 1.55 and 1.21 and 1.48 and 1.3 | Site-1 phospho / KCC (KCC3 pThr991; [3]): 1.012 and 0.998 and 0.867 and 0.921 | Site-1 phospho / KCC (KCC3 pThr991; [4]): 1.231 and 1.321 and 1.543 and 1.43 | Site-1 phospho / KCC (KCC3 pThr991; [5]): 1.091 and 0.991 and 0.86 and 0.91 | Site-1 phospho / KCC (KCC3 pThr991; [6]): 0.761 and 0.69 and 0.81 and 0.61 | Site-2 phospho / KCC (KCC3 pThr1048; [1]): 0.497 and 0.455 and 0.548 and 0.508 | Site-2 phospho / KCC (KCC3 pThr1048; [2]): 0.209 and 0.276 and 0.192 and 0.234 | Site-2 phospho / KCC (KCC3 pThr1048; [3]): 0.048 and 0.058 and 0.04 and 0.032 | Site-2 phospho / KCC (KCC3 pThr1048; [4]): 0.476 and 0.401 and 0.516 and 0.551 | Site-2 phospho / KCC (KCC3 pThr1048; [5]): 0.214 and 0.265 and 0.187 and 0.198 | Site-2 phospho / KCC (KCC3 pThr1048; [6]): 0.065 and 0.051 and 0.044 and 0.058

CN[C@@H]1C[C@H]2O[C@@](C)([C@@H]1OC)n1c3ccccc3c3c4c(c5c6ccccc6n2c5c31)C(=O)NC4 [staurosporine, reference compound]
SPAK kinase activity signal (Fig S3 source data) (GST–[T233E]SPAK kinase; ATP 0.01 mM, inhibitor 1e-5 uM): 880 and 902 | SPAK kinase activity signal (Fig S3 source data) (GST–[T233E]SPAK kinase; ATP 0.01 mM, inhibitor 0.0001 uM): 874 | SPAK kinase activity signal (Fig S3 source data) (GST–[T233E]SPAK kinase; ATP 0.01 mM, inhibitor 0.001 uM): 875 | SPAK kinase activity signal (Fig S3 source data) (GST–[T233E]SPAK kinase; ATP 0.01 mM, inhibitor 0.03 uM): 535 and 689 and 604 | SPAK kinase activity signal (Fig S3 source data) (GST–[T233E]SPAK kinase; ATP 0.01 mM, inhibitor 0.1 uM): 405 and 495 and 442 | SPAK kinase activity signal (Fig S3 source data) (GST–[T233E]SPAK kinase; ATP 0.01 mM, inhibitor 0.3 uM): 385 and 459 and 417 | SPAK kinase activity signal (Fig S3 source data) (GST–[T233E]SPAK kinase; ATP 0.01 mM, inhibitor 1 uM): 408 and 363 | SPAK kinase activity signal (Fig S3 source data) (GST–[T233E]SPAK kinase; ATP 0.01 mM, inhibitor 10 uM): 206 and 221 | SPAK kinase activity signal (Fig S3 source data) (GST–[T233E]SPAK kinase; ATP 0.01 mM, inhibitor 100 uM): 109 and 126 | SPAK kinase activity signal (Fig S3 source data) (GST–[T233E]SPAK kinase; ATP 0.01 mM, inhibitor 1000 uM): 95 and 64 and 75 | SPAK kinase activity signal (Fig S3 source data) (GST–[T233E]SPAK kinase; ATP 0.1 mM, inhibitor 1e-5 uM): 880 and 897 | SPAK kinase activity signal (Fig S3 source data) (GST–[T233E]SPAK kinase; ATP 0.1 mM, inhibitor 0.0001 uM): 874 | SPAK kinase activity signal (Fig S3 source data) (GST–[T233E]SPAK kinase; ATP 0.1 mM, inhibitor 0.001 uM): 875 and 869 | SPAK kinase activity signal (Fig S3 source data) (GST–[T233E]SPAK kinase; ATP 0.1 mM, inhibitor 0.03 uM): 715 | SPAK kinase activity signal (Fig S3 source data) (GST–[T233E]SPAK kinase; ATP 0.1 mM, inhibitor 0.1 uM): 705 and 625 and 675 | SPAK kinase activity signal (Fig S3 source data) (GST–[T233E]SPAK kinase; ATP 0.1 mM, inhibitor 0.3 uM): 565 and 509 and 529 | SPAK kinase activity signal (Fig S3 source data) (GST–[T233E]SPAK kinase; ATP 0.1 mM, inhibitor 1 uM): 453 and 458 and 431 | SPAK kinase activity signal (Fig S3 source data) (GST–[T233E]SPAK kinase; ATP 0.1 mM, inhibitor 3 uM): 389 and 363 | SPAK kinase activity signal (Fig S3 source data) (GST–[T233E]SPAK kinase; ATP 0.1 mM, inhibitor 100 uM): 112 and 127 | SPAK kinase activity signal (Fig S3 source data) (GST–[T233E]SPAK kinase; ATP 0.1 mM, inhibitor 1000 uM): 114 and 95 | SPAK kinase activity signal (Fig S3 source data) (GST–[T233E]SPAK kinase; ATP 1 mM, inhibitor 1e-5 uM): 880 | SPAK kinase activity signal (Fig S3 source data) (GST–[T233E]SPAK kinase; ATP 1 mM, inhibitor 0.0001 uM): 874 | SPAK kinase activity signal (Fig S3 source data) (GST–[T233E]SPAK kinase; ATP 1 mM, inhibitor 0.001 uM): 875 | SPAK kinase activity signal (Fig S3 source data) (GST–[T233E]SPAK kinase; ATP 1 mM, inhibitor 0.3 uM): 714 and 703 | SPAK kinase activity signal (Fig S3 source data) (GST–[T233E]SPAK kinase; ATP 1 mM, inhibitor 1 uM): 504 and 558 and 522 | SPAK kinase activity signal (Fig S3 source data) (GST–[T233E]SPAK kinase; ATP 1 mM, inhibitor 3 uM): 489 and 412 and 459 | SPAK kinase activity signal (Fig S3 source data) (GST–[T233E]SPAK kinase; ATP 1 mM, inhibitor 10 uM): 406 and 421 and 391 | SPAK kinase activity signal (Fig S3 source data) (GST–[T233E]SPAK kinase; ATP 1 mM, inhibitor 100 uM): 356 | SPAK kinase activity signal (Fig S3 source data) (GST–[T233E]SPAK kinase; ATP 1 mM, inhibitor 1000 uM): 214 and 183
